Earlier results on 1 molecule are cited in US20160367580A1, “IMPROVED EXTENDED-ACTION TILMICOSIN AND USE THEREOF IN TREATMENT OF BOVINE RESPIRATORY DISEASE COMPLEX (BRD) AND IN DRY COW PERIOD” (UNIVERSIDAD NACIONAL AUTONOMA DE MEXICO, priority 2014, published 2016).

Molecules are shown by their SMILES.

The conditions of series [1]: in vivo.
Series [2] deals with Staphylococcus aureus. Particulars: most of Staphylococcus aureus.

On to `CC[C@H]1OC(=O)C[C@@H](O)[C@H](C)[C@@H](O[C@@H]2O[C@H](C)[C@@H](O)[C@H](N(C)C)[C@H]2O)[C@@H](CCN2C[C@H](C)C[C@H](C)C2)C[C@@H](C)C(=O)/C=C/C(C)=C/[C@@H]1CO[C@@H]1O[C@H](C)[C@@H](O)[C@@H](OC)[C@H]1OC` [tilmicosin], for which the “plasma concentration not to be exceeded (cardiotoxicity with tachycardia)” value in series [1] was at most 4000 ng/mL. The CMI value in series [2] was below 1.0 µg/mL.
